Source: patent publication US7612087B2, “Heterocyclic compounds as inhibitors of beta-lactamases” (Novexel, priority 2002, dated 2009)
Like-named read-outs stand apart in the source and are kept apart here.

Assays:
β-lactamase P99 = target: T1, β-lactamase P99 (Enterobacter cloacae, UniProt P05364); test: biochemical
T1 construct: The β-lactamases are isolated from bacterial strains which are resistant to penicillins and cephalosporins; endogenous in cells; host or cells: Enterobacter cloacae 293HT6 (natural producer; French-press lysate, 100,000 g supernatant)
T1 sequence (P05364 21-381): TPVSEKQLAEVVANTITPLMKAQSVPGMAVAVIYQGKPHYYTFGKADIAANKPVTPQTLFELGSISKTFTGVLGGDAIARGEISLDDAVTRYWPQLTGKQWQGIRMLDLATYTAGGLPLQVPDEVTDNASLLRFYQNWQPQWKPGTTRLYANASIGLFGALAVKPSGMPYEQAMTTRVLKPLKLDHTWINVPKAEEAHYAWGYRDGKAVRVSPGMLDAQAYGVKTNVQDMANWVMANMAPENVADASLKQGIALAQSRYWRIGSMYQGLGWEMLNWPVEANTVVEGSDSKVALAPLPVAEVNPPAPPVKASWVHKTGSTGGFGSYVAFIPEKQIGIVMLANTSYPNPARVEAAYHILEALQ
Method: (§1) A. Preparation of the β-lactamases Tem-1 and P99
(§2) The β-lactamases are isolated from bacterial strains which are resistant to penicillins and cephalosporins (Tem1 and P99 are produced by E.coli 250HT21 and E.Cloacae 293HT6 respectively).
(§3) The bacteria are cultured at 37° C. in heart-brain culture at 37 g/l (DIFCO). They are harvested at the end of the exponential phase, cooled down and centrifuged. The bacterial pellets are taken up in sodium phosphate buffer 50 mM, pH 7.0 and centrifuged again. The bacteria are taken up in two volumes of the same buffer and lyzed using a French-Press maintained at 4° C. After centrifugation for 1 hour at 100,000 g, at 4° C., the supernatants containing the soluble fraction of the bacterial extracts are recovered and frozen at −80° C.
(§4) The method uses Nitrocefin (OXOID), cephalosporin chromogene as substrate, of which the product hydrolyzed by the B-lactamases is red and absorbs at 485 nm. Beta-lactamase activity is determined kinetically by measurement of the absorbance variation at 485 nm resulting from the hydrolysis of the substrate using a plate spectrophotometer (Spectra Max More Molecular Devices). The experiments are carried out at 37° C. The quantity of enzyme was normalized and the measurements are carried out at initial speed.
(§5) Two measurements were carried out, without preincubation and with preincubation of the enzyme and inhibitor (5 mn), in order to test the irreversibility of the reaction. The products are tested at 6 or 8 concentrations in duplicate. The reaction mixture contains 100 μM of Nitrocefin and 50 mM sodium phosphate buffer pH7.0.
(§6) The hydrolysis speeds are measured with and without inhibitor. The concentration of inhibitor which inhibits by 50% the hydrolysis reaction of Nitrocefin by the enzyme (CI50) is determined. The data is processed using GraFit software (Erathycus Software).

E. coli 250CF1 (Tem3) = test: microbe, parasite or virus in culture; format: cell-based; details: compound at 5 mg/l, 24 hours at 37° C.; for MIC of Cefotaxime in combination with the compound: Trial 4, 250CF1 E. coli Tem3; for MIC of Piperacillin in combination with the compound: Trial 4, 250CF1 Tem3
Method: (§7) The operation is carried out as follows, using the so-called micro-dilution in liquid medium method.
(§8) A series of concentrations of the β-lactamine is prepared in the presence of a constant concentration (5 mg/l) of the product to be studied, each is then seeded with various bacterial strains.
(§9) After incubation for 24 hours in a heating chamber at 37° C., the growth inhibition is evaluated by the absence of any bacterial development, which allows the minimal inhibitory concentrations (MIC) for each strain to be determined, expressed in milligrams/l.

[1] = tested on: E. cloacae 293HT6 (Class C); test: MIC, micro-dilution in liquid medium, β-lactamine with product at 5 mg/l; format: cell-based; details: compound at 5 mg/l, 24 hours at 37° C.; for MIC of Piperacillin in combination with the compound: Trial 9, 293HT6 Class; for MIC of Cefotaxime in combination with the compound: Trial 9, 293HT6 E. cloacae Class C
Method: as §7, §8, §9

E. coli 250BE1 (SHV4) = test: as above; format: cell-based; details: compound at 5 mg/l, 24 hours at 37° C.; for MIC of Cefotaxime in combination with the compound: Trial 7, 250BE1 E. coli SHV4; for MIC of Piperacillin in combination with the compound: Trial 7, 250BE1 SHV4
Method: as §7, §8, §9

E. coli 250HT21 (Tem1) = test: as above; format: cell-based; details: compound at 5 mg/l, 24 hours at 37° C.; for MIC of Cefotaxime in combination with the compound: Trial 2, 250HT21 E. coli Tem1; for MIC of Piperacillin in combination with the compound: Trial 2, 250HT21 Tem1
Method: as §7, §8, §9

E. coli 250HT22 (Tem2) = test: as above; format: cell-based; details: compound at 5 mg/l, 24 hours at 37° C.; for MIC of Cefotaxime in combination with the compound: Trial 3, 250HT22 E. coli Tem2; for MIC of Piperacillin in combination with the compound: Trial 3, 250HT22 Tem2
Method: as §7, §8, §9

[2] = tested on: E. coli 250HT23 (Class D); test: as above; format: cell-based; details: compound at 5 mg/l, 24 hours at 37° C.; for MIC of Piperacillin in combination with the compound: Trial 8, 250HT23 Class D; for MIC of Cefotaxime in combination with the compound: Trial 8, 250HT23 E. coli Class D
Method: as §7, §8, §9

E. coli 250HT26 (SHV1) = test: as above; format: cell-based; details: compound at 5 mg/l, 24 hours at 37° C.; for MIC of Cefotaxime in combination with the compound: Trial 6, 250HT26 E. coli SHV1; for MIC of Piperacillin in combination with the compound: Trial 6, 250HT26 SHV1
Method: as §7, §8, §9

E. coli 250SJ1 (Tem7) = test: as above; format: cell-based; details: compound at 5 mg/l, 24 hours at 37° C.; for MIC of Cefotaxime in combination with the compound: Trial 5, 250SJ1 E. coli Tem7; for MIC of Piperacillin in combination with the compound: Trial 5, 250SJ1 Tem7
Method: as §7, §8, §9

[3] = tested on: P. aeruginosa 391HT7 (PSE); test: as above; format: cell-based; details: compound at 5 mg/l, 24 hours at 37° C.; for MIC of Cefotaxime in combination with the compound: Trial 11, 391HT7 P. aeruginosa PSE; for MIC of Piperacillin in combination with the compound: Trial 11, 391HT7 PSE
Method: as §7, §8, §9

[4] = tested on: P. aeruginosa 391HT8 (PSE); test: as above; format: cell-based; details: compound at 5 mg/l, 24 hours at 37° C.; for MIC of Cefotaxime in combination with the compound: Trial 12, 391HT8 P. aeruginosa PSE; for MIC of Piperacillin in combination with the compound: Trial 12, 391HT8 PSE
Method: as §7, §8, §9

[5] = tested on: S. aureus 011GO66 (PeniR); test: as above; format: cell-based; details: compound at 5 mg/l, 24 hours at 37° C.; for MIC of Cefotaxime in combination with the compound: Trial 1, 011GO66 S. aureus PeniR; for MIC of Piperacillin in combination with the compound: Trial 1, 011GO66 peniR
Method: as §7, §8, §9

Serratia 301HT6 = test: as above; format: cell-based; details: compound at 5 mg/l; Trial 10, 301HT6 Serratia; 24 hours at 37° C.
Method: as §7, §8, §9

β-lactamase TEM1 = target: T2, β-lactamase TEM1 (Escherichia coli, UniProt P62593); test: Inhibition of isolated β-lactamase Tem-1 (Nitrocefin hydrolysis); format: biochemical, E.coli 250HT21; details: 100 μM Nitrocefin, 50 mM sodium phosphate buffer pH7.0, 37° C.
T2 construct: The β-lactamases are isolated from bacterial strains which are resistant to penicillins and cephalosporins; endogenous in cells; host or cells: E. coli 250HT21 (natural producer; French-press lysate, 100,000 g supernatant)
T2 sequence (P62593 24-286 limits assumed): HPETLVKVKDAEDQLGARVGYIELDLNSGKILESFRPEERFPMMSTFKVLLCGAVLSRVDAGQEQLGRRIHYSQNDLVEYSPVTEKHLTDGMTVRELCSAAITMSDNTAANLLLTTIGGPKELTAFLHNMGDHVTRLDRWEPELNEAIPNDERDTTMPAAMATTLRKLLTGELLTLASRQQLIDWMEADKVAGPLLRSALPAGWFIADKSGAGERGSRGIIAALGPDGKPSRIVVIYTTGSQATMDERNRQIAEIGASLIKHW
Method: as §1, §2, §3, §4, §5, §6

[6] = 100 μM Nitrocefin, 50 mM sodium phosphate buffer pH7.0, 37° C., read-out: IC50 nM/P99

SMILES | MIC of Cefotaxime in combination with the compound (E. coli 250CF1 (Tem3)) | MIC of Piperacillin in combination with the compound (E. coli 250CF1 (Tem3)) | MIC of Piperacillin in combination with the compound [1] | MIC of Cefotaxime in combination with the compound [1] | MIC of Cefotaxime in combination with the compound (E. coli 250BE1 (SHV4)) | MIC of Piperacillin in combination with the compound (E. coli 250BE1 (SHV4)) | MIC of Cefotaxime in combination with the compound (E. coli 250HT21 (Tem1)) | MIC of Piperacillin in combination with the compound (E. coli 250HT21 (Tem1)) | MIC of Cefotaxime in combination with the compound (E. coli 250HT22 (Tem2)) | MIC of Piperacillin in combination with the compound (E. coli 250HT22 (Tem2)) | MIC of Piperacillin in combination with the compound [2] | MIC of Cefotaxime in combination with the compound [2] | MIC of Cefotaxime in combination with the compound (E. coli 250HT26 (SHV1)) | MIC of Piperacillin in combination with the compound (E. coli 250HT26 (SHV1)) | MIC of Cefotaxime in combination with the compound (E. coli 250SJ1 (Tem7)) | MIC of Piperacillin in combination with the compound (E. coli 250SJ1 (Tem7)) | MIC of Cefotaxime in combination with the compound [3] | MIC of Piperacillin in combination with the compound [3] | MIC of Cefotaxime in combination with the compound [4] | MIC of Piperacillin in combination with the compound [4] | other results
NC(=O)[C@@H]1CC[C@@H]2CN1C(=O)N2OS(=O)(=O)O (relative stereo) [Example 33, trans-7-oxo-6-(sulphooxy)-1,6-diazabicyclo[3.2.1]octane-2-carboxamide] | <=0.04 μg/ml | 1.2 µg/mL | 0.6 µg/mL | <=0.04 μg/ml | <=0.04 μg/ml | 1.2 µg/mL | <=0.04 μg/ml | 0.3 µg/mL | <=0.04 μg/ml | 0.6 µg/mL | 2.5 µg/mL | <=0.04 μg/ml | <=0.04 μg/ml | 1.2 µg/mL | <=0.04 μg/ml | 0.6 µg/mL | 20 µg/mL | >40 µg/mL | 20 µg/mL | 10 µg/mL | IC50 (β-lactamase P99): 330 nM; MIC of Cefotaxime in combination with the compound [5]: 2.5 µg/mL; MIC of Piperacillin in combination with the compound [5]: 1.2 µg/mL; MIC of Cefotaxime in combination with the compound (Serratia 301HT6): 0.08 µg/mL; MIC of Piperacillin in combination with the compound (Serratia 301HT6): 0.6 µg/mL
O=C(NCc1ccccc1)[C@H]1CC[C@@H]2CN1C(=O)N2OS(=O)(=O)[O-].[Na+] (relative stereo) [Example 34, sodium salt of trans-7-oxo-N-(phenylmethyl)-6-(sulphooxy)-1,6-diazabicyclo[3.2.1]octane-2-carboxamide] | 0.15 µg/mL | >40 µg/mL | 10 µg/mL | 0.6 µg/mL | 0.08 µg/mL | >40 µg/mL | <=0.04 μg/ml | 5 µg/mL | <=0.04 μg/ml | >40 µg/mL | 40 µg/mL | <=0.04 μg/ml | <=0.04 μg/ml | 20 µg/mL | <=0.04 μg/ml | >40 µg/mL | 20 µg/mL | >40 µg/mL | 20 µg/mL | >40 µg/mL | IC50 (β-lactamase TEM1): 27 nM; IC50 (β-lactamase P99; [6]): 32 nM; MIC of Cefotaxime in combination with the compound [5]: 1.2 µg/mL; MIC of Piperacillin in combination with the compound [5]: 0.6 µg/mL; MIC of Cefotaxime in combination with the compound (Serratia 301HT6): <=0.04 μg/ml; MIC of Piperacillin in combination with the compound (Serratia 301HT6): 1.2 µg/mL
O=C(NCc1ccccn1)[C@H]1CC[C@@H]2CN1C(=O)N2OS(=O)(=O)[O-].[Na+] (relative stereo) [Example 35, sodium salt of trans-7-oxo-N-(2-pyridinylmethyl)-6-(sulphooxy)-1,6-diazabicyclo[3.2.1]octane-2-carboxamide] | 0.15 µg/mL | 10 µg/mL | 5 µg/mL | 0.6 µg/mL | 0.08 µg/mL | 20 µg/mL | <=0.04 μg/ml | 2.5 µg/mL | <=0.04 μg/ml | 20 µg/mL | 10 µg/mL | <=0.04 μg/ml | <=0.04 μg/ml | 5 µg/mL | <=0.04 μg/ml | 5 µg/mL | 20 µg/mL | >40 µg/mL | 20 µg/mL | >40 µg/mL | IC50 (β-lactamase TEM1): 53 nM; IC50 (β-lactamase P99; [6]): 56 nM; MIC of Cefotaxime in combination with the compound [5]: 1.2 µg/mL; MIC of Piperacillin in combination with the compound [5]: 1.2 µg/mL; MIC of Cefotaxime in combination with the compound (Serratia 301HT6): <=0.04 μg/ml; MIC of Piperacillin in combination with the compound (Serratia 301HT6): 1.2 µg/mL
